What was measured:
acetic acid writhing = experiment: Analgetic activity against chemical stimulation of acetic acid (writhing); assay type: in vivo, mouse (ICR female); details: Mus musculus, po, 30 min before 0.6% acetic acid, read-out: I.R. of writhing
Source text: (§1) Rate of inhibition (I.R.) (%)=(1-T/C)×100
T represents the average number of writhing of the group of mice administered with the present compound and injected with acetic acid, and C represents the average number of writhing of the group of mice only injected with acetic acid (control).

Sarcoma-180 = experiment: Anti-tumour activity against Sarcoma-180; assay type: in vivo, mouse (ICR-JCL); details: Mus musculus, Sarcoma-180, po, 600 h, 10 times every other day, tumour weight on 25th day, read-out: Antitumour activity, inhibiting rate (I.R.)
Method: Sarcoma-180 was transplanted into the axillary part of ICR-JCL mice at a rate of 1×10^6 cells/animal, and after 24 hours of transplantation, each of the present compounds as a solution or dispersion in sterilized physiological saline solution was orally administered to each of the transplanted mice 10 times every other day at a dose of 500 mg/kg/time. On 25th day of the transplantation, tumour node(s) were extirpated from all the mice to determine the weight of the tumour nodes.
Antitumour activity (activity of inhibiting the proliferation of the transplanted sarcoma) of each of the present compounds was derived by the following formula and shown in Table 6:
Antitumour activity (Inhibiting rate, I.R.)=(1-T/C)×100(%).
T represents the total weight of tumour nodes of the group of mice transplanted and administered with the present compound, and
C represents the total weight of tumour nodes of the group of mice transplanted, however, not administered with any agents.

exudation = experiment: Anti-exudation activity (air pouch, croton oil); assay type: in vivo, rat; details: Rattus norvegicus, po, 144 h, 5 days, read-out: I.R. against exudation
Method: Following the method of Baris et al. (1965), air was injected subcutaneously into the back of groups of rats, each group consisting of 6 animals to make an air pouch, and 0.5 ml of sesame oil containing 1% by weight of croton oil was injected into the air pouch. Each of the present compounds was orally administered forcibly to each of the groups of rats as a solution or dispersion in distilled water at a dose rate of 1000 mg/kg/day for continued five days. The amount of liquid exudated into the air pouch was measured on 6th day of the operation. The rate of inhibiting the exudation of the liquid was obtained by the same manner as in (5-2) and the results are shown also in Table 8.

in vivo = details: mouse, in vivo, po, mice, 7 days observation, read-out: LD50, acute oral toxicity
[1] = test system: pseudo-escaping reaction to tail pressure; experiment: Analgetic activity against mechanical stimulation of pressure; assay type: in vivo, mouse (ICR female); details: oral, 1000 mg/kg
total cholesterol = experiment: Anti-hyperlipemia activity, total cholesterol in blood; assay type: in vivo, rabbit (Japanese white male); details: oral, 300 mg/kg once; for Reduction of cholesterol level after 3 hrs.: negative = raising
Method: (§2) Japanese white male rabbits were fed for 3 months with a solid diet containing 1% of cholesterol taken ad lib, and after confirming the raised lipid content of the serum of the rabbits, they were utilized as model animals suffering from experimental arteriosclerosis. Each of the present compounds was administered orally as a solution or dispersion in distilled water to the experimental animals of each group at a dose rate of 300 mg/kg once, and blood samples were taken at a predetermined time interval from the auricular vein of each animal. The content of cholesterol in the blood specimen was traced as the time passed by, with an enzymatic method, and the content of beta-lipoprotein in the same blood specimen was traced with a colorimetry. Each value in Table 7 is the difference between the level just before administration and the level after 3 or 6 hours of the administration.

[2] = test system: pyrexia (Saccharomyces cerevisiae); experiment: Anti-pyrexia activity (yeast-induced); assay type: in vivo; details: Rattus norvegicus, oral, read-out: Rate of inhibiting pyrexia (I.R.)
Method: Following the method of Winter et al. (1961), an aqueous dispersion of 20% by weight of Saccharomyces cerevisiae was subcutaneously injected into groups of rats, each group consisting of 6 animals, and after 10-hour fasting, 1000 mg/kg of each of the present compounds was orally administered to the rat as a solution of dispersion in distilled water, and then the rectal temperature of the rat was measured at a predetermined interval of time to find the lowest temperature.
The anti-pyrexia activity of each compound was obtained from the following formula: […]
Anti-pyrexia activity represented by the rate of inhibition (I.R.)
C2 represents the average rectal temperature of negative control (non-treatment), not injected with the yeast and not administered with the present compound,
C1 represents the average temperature of positive control, injected with the yeast and not administered with the compound and T represents the temperature of tested animals, injected with the yeast and administered with the present compound.

carrageenin edema = experiment: Anti-Carrageenin edema activity; assay type: in vivo, rat; details: Rattus norvegicus, po, 1000 mg/kg once, read-out: I.R. against carrageenin edema
Method: After orally administering each of the present compounds forcibly to each group of rats, composed of 10 animals, as a solution or dispersion in distilled water at a dose of 1000 mg/kg once, 0.1 ml of an aqueous dispersion of 1% carrageenin in aqueous physiological saline solution was injected into the foot pad of the right hind leg of the administered animal following Van Arman et al. (1963). Thereafter, the thickness of the foot pad was measured at a time interval to find the rate of inhibiting of the swelling of the foot pad according to the following formula:
as §1
T means the average volume of the foot pad of the animals administered with one of the present compounds and carrageenin, and
C means that of the animal not administered with the present compound, however, administered with carrageenin.

beta-lipoprotein = experiment: Anti-hyperlipemia activity, beta-lipoprotein in blood; assay type: in vivo, rabbit (Japanese white male); details: oral, 300 mg/kg once
Method: as §2

level of blood sugar = experiment: Anti-hyperglycemia activity (reduction of blood sugar level); assay type: in vivo, rat (Wistar, streptozotocin); details: oral, 300 mg/kg
Method: A group of Wistar rats to which at first streptozotocin was interperitoneally administered at a rate of 60 mg/kg and of which the positivity of glycosuria was confirmed after a week of the administration and to which regular insulin was further administered and of which the reduction of levels of glucose in urine and blood was once confirmed, however, of which hyperglycemia and hyperglycosuria were again confirmed after a few days was chosen and used as model animals of glycosuria in the following test. After orally administering each of the present compounds to the model animals at a dose of 300 mg/kg body weight, as a solution or dispersion in distilled water, the blood was collected two times, respectively after 3 and 6 hours of the administration.

blood pressure = experiment: Anti-hypertension activity (reduction of blood pressure); assay type: in vivo, rat (spontaneous hypertension); details: oral, 300 mg/kg
Method: Rats of spontaneous hypertension were orally administered with each of the present compounds as a solution or dispersion in distilled water at a dose rate of 300 mg/kg body weight. After 3 and 6 hours of the administration, the blood pressure of each rat was determined, and the difference between the above-determined value and the value just before the administeration was used as the index of the activity of reducing the blood pressure of the compound.

cotton pellet granuloma = experiment: Anti-granuloma activity (cotton pellet); assay type: in vivo, rat; details: Rattus norvegicus, po, 192 h, 7 days, read-out: I.R. against cotton pellet edema
Method: Following the method of Winter et al. (1963), each two cotton wool pellets, each weighing 30±1 mg, were implanted into the back of each rats of groups of rats, each group consisting of 6 animals, at the positions of mutually symmetrical concerning the median line of the rat. To these groups of the thus operated rats, the present compounds were respectively administered orally and forcibly as a solution or dispersion in distilled water for 7 continuous days, once a day at a dose of 1000 mg/kg/day. On 8th day of the implantation, the granuloma was extirpated and the dry weight of the granuloma was measured, the rate of inhibiting the proliferation of granuloma being obtained as in (5-1) being shown in Table 8.

SMILES	inhibition in vivo at 1000 mg/kg (acetic acid writhing)	inhibition in vivo at 500 mg/kg (Sarcoma-180)	inhibition in vivo at 1000 mg/kg/day (exudation)	LD50 at 168 h (in vivo)	Pseudo-escapting reaction pressure [1]	Pseudo-escapting reaction time [1]	Reduction of cholesterol level after 3 hrs. (total cholesterol)	Reduction of cholesterol level after 6 hrs. (total cholesterol)	inhibition in vivo at 1000 mg/kg [2]	inhibition in vivo at 1000 mg/kg (carrageenin edema)	Reduction of beta-lipoprotein level after 3 hrs. (beta-lipoprotein)	Reduction of beta-lipoprotein level after 6 hrs. (beta-lipoprotein)	Reduced level of blood sugar after 3 hrs. (level of blood sugar)	Reduced level of blood sugar after 6 hrs. (level of blood sugar)	Reduced level of blood pressure after 3 hrs. (blood pressure)	Reduced level of blood pressure after 6 hrs. (blood pressure)	inhibition in vivo at 1000 mg/kg/day (cotton pellet granuloma)
C[C@@H]1OC(Nc2ccc(C(N)=O)cc2)[C@H](O)[C@H](O)[C@H]1O (stereo partly drawn) [Compound 5, p-aminobenzoic acid amide-N-L-rhamnoside]	52%	39%	12.4%	10500 mg/kg	90 mmHg	41 s	-1 mg/dL	32 mg/dL	59%	4.2%	134 mg/dL	148 mg/dL	91 mg/dL	128 mg/dL	17 mm Hg	18 mm Hg	16.8%
C[C@@H]1OC(Nc2ccccc2C(=O)Oc2ccccc2)[C@H](O)[C@H](O)[C@H]1O (stereo partly drawn) [Compound 6, phenyl o-aminobenzoate-N-L-rhamnoside]	37%	44%	19%	> 15000 mg/kg	98 mmHg	43 s	4 mg/dL	57 mg/dL	69%	7.6%	152 mg/dL	155 mg/dL	121 mg/dL	146 mg/dL	22 mm Hg	23 mm Hg	20.5%
O=C(Oc1ccccc1)c1cccc(NC2O[C@H](CO)[C@@H](O)[C@H](O)[C@@H]2O)c1 (stereo partly drawn) [Compound 7, phenyl m-aminobenzoate-N-D-mannoside]	46%	49%	7.5%	14800 mg/kg	95 mmHg	44 s	-2 mg/dL	62 mg/dL	31%	5.9%	141 mg/dL	150 mg/dL	144 mg/dL	159 mg/dL	24 mm Hg	26 mm Hg	25.3%
O=C(Oc1ccccc1)c1ccc(NC2OC[C@@H](O)[C@H](O)[C@H]2O)cc1 (stereo partly drawn) [Compound 8, phenyl p-aminobenzoate-N-D-xyloside]	20%	53%	15.7%	13500 mg/kg	80 mmHg	39 s	6 mg/dL	46 mg/dL	47%	21.4%	128 mg/dL	144 mg/dL	106 mg/dL	140 mg/dL	18 mm Hg	20 mm Hg	5.6%
O=C(Oc1ccccc1)c1ccc(NC2O[C@H](CO)[C@@H](O[C@@H]3O[C@H](CO)[C@@H](O)[C@H](O)[C@H]3O)[C@H](O)[C@H]2O)cc1 (stereo partly shown) [Compound 9, phenyl p-aminobenzoate-N-cellobioside]	28%	40%	18.8%	> 15000 mg/kg	86 mmHg	38 s	-1 mg/dL	40 mg/dL	32%	3.7%	126 mg/dL	136 mg/dL	85 mg/dL	121 mg/dL	25 mm Hg	28 mm Hg	7.9%

Source: patent US4372948A, “Derivative of saccharide and physiologically active agent containing the same” (Kureha Kagaku Kogyo Kabushiki Kaisha, priority 1980, dated 1983)
